# In patent US5420158A, “Naphthylalkylamines” (Adir et Compagnie, priority 1992, dated 1995):
# System: Xenopus melanophores
# Experiment: Melatonin-antagonist activity with respect to pigment aggregation
# Format: cell-based, Xenopus laevis
# Conditions: compound at 10^-7 M, melatonin 10^-8 M
# Procedure: Melatonin is known to participate in regulation of the skin color of amphibians such as Xenopus (Xenopus laevis). It causes condensation of the […] granules in the melanophores of the dermis (Sugden D. European Journal of Pharmacology, vol. 213, pp: 405-408 (1992)).
# The compounds of the invention were tested for their capacity to inhibit the effect of melatonin on Xenopus melanophores.
# (According to the method described in Sugden D. Br. J. Pharmacol. vol. 104, pp 922-927, (1991)).
# The neural crest of Xenopus embryos is dissected and the cells are isolated. The melanophores which appear after 2-3 days of culture are rapidly visible among the other cells emanating from the neural crest. The melanophores are cultured in Leibovitz L-15 medium (Gibco) and diluted (1/1) with deionized water containing 10% of fetal calf serum, 200 IU/cm^3 of penicillin, 200 μg/cm^3 of streptomycin and 2.5 μg/cm^3 of amphotericin B.
# The experiments on the melanophores are carried out between days 7 and 12 of the culture.
# The response of the isolated melanophores to melatonin is quantified by measuring the pigmented area using a computer-assisted image analyzer. The test compounds are added to the culture medium 10 to 15 min before the measurement.
smiles,measurement,value
"O=C(NCCc1cccc2ccccc12)C1CCC1 [Example 1, N-[2-(1-naphthyl)ethyl]cyclobutanecarboxamide]",antagonism of the action of melatonin on pigment aggregation,significantly antagonizes the action of melatonin
